Results from PubChem BioAssay (NCI).
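Here, GI50 denotes the concentration required for 50% inhibition of growth. The concentration for full growth arrest is given as TGI.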

Columns and labels:
Test in all cases: NCI anticancer screen, dose series, 384-well format
[1] = system: EKVX NSCLC
[2] = system: UO-31 renal
[3] = system: MALME-3M melanoma
[4] = system: SR leukemia
[5] = system: SK-MEL-28 melanoma
[6] = system: NCI-H522 lung
[7] = system: DU-145 prostate
[8] = system: KM12 colon
[9] = system: CAKI-1 renal
[10] = system: K-562 leukemia
[11] = system: TK-10 renal
[12] = system: HL-60(TB) leukemia
[13] = system: NCI-H460 NSCLC
[14] = system: SF-295 CNS
[15] = system: PC-3 prostate
[16] = system: UACC-257 melanoma
[17] = system: COLO 205 colon
[18] = system: A549 NSCLC
[19] = system: IGROV1 ovarian
[20] = system: NCI/ADR-RES ovarian
[21] = system: MDA-MB-435 melanoma
[22] = system: OVCAR-5 ovarian
[23] = system: HCT-15 colon
[24] = system: SNB-75 CNS
[25] = system: MDA-MB-231 breast
[26] = system: CCRF-CEM leukemia
[27] = system: SK-OV-3 ovarian
[28] = system: SF-539 CNS
[29] = system: UACC-62 melanoma
[30] = system: RXF 393 renal
[31] = system: BT-549 breast
[32] = system: ACHN renal
[33] = system: NCI-H226 lung
[34] = system: OVCAR-4 ovarian
[35] = system: LOX IMVI melanoma
[36] = system: NCI-H23 lung
[37] = system: U251 glioblastoma
[38] = system: A498 renal
[39] = system: HOP-62 NSCLC
[40] = system: HS 578T breast
[41] = system: M14 melanoma
[42] = system: NCI-H322M lung
[43] = system: HT29 colon
[44] = system: MCF7 breast
[45] = system: SF-268 CNS
[46] = system: OVCAR-3 ovarian
[47] = system: RPMI-8226 leukemia
[48] = system: SK-MEL-2 melanoma
[49] = system: MDA-MB-468 breast
[50] = system: T-47D breast
[51] = system: HCT-116 colon
[52] = system: SNB-19 CNS
[53] = system: HOP-92 NSCLC
[54] = system: SK-MEL-5 melanoma
[55] = system: HCC-2998 colon
[56] = system: MOLT-4 leukemia
[57] = system: 786-0 renal
[58] = system: SN12C renal
[59] = system: SW-620 colon

`Cc1cc([N+](=O)[O-])ccc1NS(=O)(=O)c1cc(Cl)ccc1Cl` was tested, and the GI50 [1] was 3.64 µM, the TGI [1] was 14.6 µM and the GI50 [2] was 12.4 µM. For the same compound, the TGI [2] was 43.9 µM, the GI50 [3] was 5.38 µM and the TGI [3] was 24.4 µM. The GI50 [4] was 19.1 µM, the TGI [4] was 33.3 µM and the GI50 [5] was 5.46 µM. The TGI [5] was 32.4 µM, the GI50 [6] was 2.87 µM and the TGI [6] was 8.65 µM. For the same compound, the GI50 [7] was 10.1 µM, the TGI [7] was > 100 µM and the GI50 [8] was 6.61 µM. For the same compound, the TGI [8] was 43.9 µM, the GI50 [9] was 5.52 µM and the TGI [9] was 39 µM. For the same compound, the GI50 [10] was 7.36 µM, the TGI [10] was 55.7 µM and the GI50 [11] was 11.4 µM. The TGI [11] was > 100 µM, the GI50 [12] was 2.74 µM and the TGI [12] was 5.97 µM. It also gave a GI50 [13] of 2.89 µM, a TGI [13] of 11.6 µM and a GI50 [14] of 3.99 µM. For the same compound, the TGI [14] was 22.1 µM, the GI50 [15] was 3.59 µM and the TGI [15] was 14.6 µM. The GI50 [16] was 4.95 µM, the TGI [16] was 19.2 µM and the GI50 [17] was 17.1 µM. For the same compound, the TGI [17] was 78 µM, the GI50 [18] was 4.62 µM and the TGI [18] was 24 µM. For the same compound, the GI50 [19] was 18.9 µM, the TGI [19] was > 100 µM and the GI50 [20] was 3.26 µM. It also gave a TGI [20] of 15.9 µM, a GI50 [21] of 3.21 µM and a TGI [21] of 26.6 µM. The GI50 [22] was 12.9 µM, the TGI [22] was 44.1 µM and the GI50 [23] was 3.44 µM. The TGI [23] was 14.9 µM, the GI50 [24] was 9.67 µM and the TGI [24] was 35.4 µM. For the same compound, the GI50 [25] was 5.07 µM, the TGI [25] was 30.8 µM and the GI50 [26] was 5.19 µM. The TGI [26] was 18.4 µM, the GI50 [27] was 13.8 µM and the TGI [27] was 49.8 µM. It also gave a GI50 [28] of 5.29 µM, a TGI [28] of 20.1 µM and a GI50 [29] of 13.3 µM. It also gave a TGI [29] of 33.3 µM, a GI50 [30] of 4.56 µM and a TGI [30] of 22.3 µM. The GI50 [31] was 3.08 µM, the TGI [31] was 8.84 µM and the GI50 [32] was 14.4 µM. For the same compound, the TGI [32] was 67.9 µM, the GI50 [33] was 6.27 µM and the TGI [33] was 20.2 µM. For the same compound, the GI50 [34] was 6.02 µM, the TGI [34] was > 100 µM and the GI50 [35] was 3.74 µM. It also gave a TGI [35] of 13.3 µM, a GI50 [36] of 2.98 µM and a TGI [36] of 13.1 µM. For the same compound, the GI50 [37] was 2.91 µM, the TGI [37] was 10.5 µM and the GI50 [38] was 4.63 µM. For the same compound, the TGI [38] was 22.6 µM, the GI50 [39] was 13.5 µM and the TGI [39] was 35.5 µM. For the same compound, the GI50 [40] was 3.02 µM, the TGI [40] was 10.6 µM and the GI50 [41] was 16.9 µM. For the same compound, the TGI [41] was 68.3 µM, the GI50 [42] was 3.85 µM and the TGI [42] was 16.4 µM. The GI50 [43] was 4.53 µM, the TGI [43] was > 100 µM and the GI50 [44] was 7.65 µM. It also gave a TGI [44] of 25.2 µM, a GI50 [45] of 3.78 µM and a TGI [45] of 27.5 µM. The GI50 [46] was 3.56 µM, the TGI [46] was 15.4 µM and the GI50 [47] was 2.09 µM. It also gave a TGI [47] of 4.48 µM, a GI50 [48] of 33.1 µM and a TGI [48] of 49.5 µM. For the same compound, the GI50 [49] was 2.16 µM, the TGI [49] was 9.32 µM and the GI50 [50] was 2.65 µM. The TGI [50] was 6.31 µM, the GI50 [51] was 4.45 µM and the TGI [51] was 16 µM. For the same compound, the GI50 [52] was 5.5 µM, the TGI [52] was 75.6 µM and the GI50 [53] was 3.63 µM. For the same compound, the TGI [53] was 16.4 µM, the GI50 [54] was 2.45 µM and the TGI [54] was 7.27 µM. It also gave a GI50 [55] of 5.29 µM, a TGI [55] of 24.5 µM and a GI50 [56] of 7.48 µM. It also gave a TGI [56] of 20.2 µM, a GI50 [57] of 7.49 µM and a TGI [57] of 33.6 µM. It also gave a GI50 [58] of 5.83 µM, a TGI [58] of 49.4 µM and a GI50 [59] of 5.93 µM. It also gave a TGI [59] of 46 µM.
